{
  "source": "patent US10370436B2",
  "about": "“Anti-pseudomonas Psl binding molecules and uses thereof” (priority 2011, dated 2019)",
  "key": {"[1]": {"system": "Psl (enriched carbohydrate purified from PAO1ΔwbpL/algD/pelA)", "experiment": "Psl capture binding assay (FORTEBIO OCTET 384)", "parameters": "species or system Pseudomonas aeruginosa", "settings": "FIG. 3K", "protocol": "To confirm that all of the antibodies bound to the same antigen, a Psl capture binding assay was performed using a FORTEBIO® OCTET® 384 instrument as described above. The antigen was proteinase K-treated enriched carbohydrate purified from PAO1ΔwbpL/algD/pelA (O-antigen-, alginate- and Pel exopolysaccharide-deficient). Individual antibodies were bound to aminopropylsilane biosensors followed by blocking and the addition of the enriched carbohydrate antigen. After washing to remove unbound antigen, binding of unlabelled mAbs to captured antigen was assessed."}, "[2]": {"system": "non-mucoid P. aeruginosa strains from clinically relevant O-antigen serotypes", "experiment": "OPK assay, non-mucoid clinical isolates", "assay_type": "cell-based, Pseudomonas aeruginosa", "settings": "FIG. 2C", "protocol": "(§1) This example describes the evaluation of prioritized human IgG1 antibodies to promote OPK of P. aeruginosa. […] OPK assays were performed as described in (DiGiandomenico, A., et al., Infect Immun 72, 7012-7021 (2004)), with modifications. Briefly, assays were performed in 96-well plates using 0.025 ml of each OPK component; P. aeruginosa strains; diluted baby rabbit serum; differentiated HL-60 cells; and monoclonal antibody. In some OPK assays, luminescent P. aeruginosa strains, which were constructed as described (Choi, K. H., et al., Nat Methods 2, 443-448 (2005)), were used. Luminescent OPK assays were performed as described above but with determination of relative luciferase units (RLUs) using a Perkin Elmer ENVISION Multilabel plate reader (Perkin Elmer).\nThe ability of Cam-003 to mediate OPK activity against representative non-mucoid strains from clinically relevant O-antigen serotypes and against mucoid P. aeruginosa strains which were derived from cystic fibrosis patients was evaluated."}, "[3]": {"system": "P. aeruginosa strain 9882-80 (O11)", "experiment": "OPK assay, strain 9882-80.lux", "assay_type": "cell-based, Pseudomonas aeruginosa", "settings": "strain 9882-80.lux (O11); FIG. 2B", "protocol": "as §1\nThe ability of the WapR-004 and Cam-003 antibodies to mediate OPK activity against another clinically relevant O-antigen serotype strain, 9882-80.lux, was evaluated."}, "P. aeruginosa PAO10 LPS": {"system": "P. aeruginosa PAO10 LPS", "experiment": "Endotoxemia (LPS challenge) model", "assay_type": "in vivo, C57Bl/6 mice", "settings": "control mice dosed with unconjugated mAb", "protocol": "In particular, C57Bl/6 mice (10 per group) were dosed i.p. with mAb or PMB-mAb conjugate 6 h prior to challenge with P. aeruginosa PAO10 LPS (Sigma) and D-galactosamine. PMB control was dosed i.p. 2 h prior to challenge at 0.2 mg/kg and typically provides 80-100% protection. Control mice dosed with unconjugated CAM-003 all died within 18 h.\nTM conjugates were dosed at 45, 15 and 5 mg/kg."}, "P. aeruginosa PAO1 cells": {"system": "P. aeruginosa PAO1 cells", "experiment": "Flow cytometry (FACS) whole cell binding", "parameters": "species or system Pseudomonas aeruginosa", "settings": "PAO1ΔpslA; FIG. 3C", "text": "For IgG expression, the VH and VL chains of selected antibodies were cloned into human IgG1 expression vectors, co-expressed in HEK293 cells, and purified by protein A affinity chromatography as described (Persic, L., et al., Gene 187, 9-18 (1997)). Human IgG1 antibodies made with the variable regions from these selected serotype independent phage were confirmed for P. aeruginosa specificity and prioritized for subsequent analysis by whole cell binding to dominant clinically relevant serotypes by FACS analysis (FIG. 1F), since this method is more stringent than ELISA. For the flow cytometry based binding assays mid-log phase P. aeruginosa strains were concentrated in PBS to an OD650 of 2.0. […] Samples were run on a LSR II flow cytometer (BD Biosciences) and analyzed using BD FacsDiva (v. 6.1.3) and FlowJo (v. 9.2; TreeStar).\nCAM-003 is specific for the P. aeruginosa Psl surface exopolysaccharide and mediates potent OPK activity and protection in multiple in vivo models. […] Conjugation efficiency of PMB-mAbs variants was determined by mass spectrometry analysis of heavy chains in purified conjugates. […] Contamination with free PMB in the purified preparations was determined to be negligible. Binding of PMB-Cam-003 and PMB-A7 conjugates to P. aeruginosa PAO1 cells was evaluated by FACS. […] Samples were stained and analyzed as previously described in Example 1. […]"}},
  "data": [
    {"substance": "Cam-003: human IgG1 anti-Psl monoclonal antibody, VH SEQ ID NO: 1 and VL SEQ ID NO: 2", "values": [
      {"measurement": "reactivity of unlabelled mAb to captured Psl", "setting": "[1]", "result": "reacted"},
      {"measurement": "capture of Psl antigen by biosensor-bound antibody", "setting": "[1]; antibody bound to aminopropylsilane biosensors", "result": "capable of capturing antigen"},
      {"measurement": "OPK activity", "setting": "[2]", "result": "mediated potent OPK of all non-mucoid clinical isolates tested"},
      {"measurement": "OPK activity", "setting": "[3]", "result": "OPK activity extends to strain 9882-80"},
      {"measurement": "time within which all mice died", "setting": "P. aeruginosa PAO10 LPS", "result": "≤ 18", "unit": "h"},
      {"measurement": "FACS binding", "setting": "P. aeruginosa PAO1 cells", "result": "abolished"}
    ]}
  ]
}
